This is an account of results in US20100273722A1, “MODIFIED MINIATURE PROTEINS” (Yale University, priority 2007, published 2010).

Assay [1] has as its target Lyn SH3 domain-GST fusion protein (Homo sapiens, UniProt P07948). Put plainly: Fluorescence polarization direct binding assay, Lyn SH3. Particulars: 50 nM fluorescently labeled ligand, PBS pH 7.4; read-out: Kd, Lyn SH3. Here is the method:
(§1) Polarization was measured by excitation with vertically polarized light at 485 nm and the fluorescence emission detected at 530 nm in both the vertical and horizontal directions. An average of five measurements were recorded for each well. Samples were equilibrated at room temperature for 25 min before analysis, a time sufficient for the binding reactions to reach equilibrium. The polarization data were fit using Kaleidagraph v3.6 software to Eq. 5, which is derived from first principles without assumptions. […] In this equation, Pobs is the observed polarization value at any given concentration of target protein (GST•SH3 domain). Pmin is the polarization of peptide^Flu at 50 nM in the absence of target protein. Pmax is the maximum polarization of peptide^Flu at saturation with target protein. Kd is the equilibrium dissociation constant. […] In these cases a lower limit Kd was estimated by setting Pmax equal to the observed polarization at the highest target protein concentration tested, which was often limited by solubility. […] Free fits are shown. Kd values were estimated as described. […] In several cases, the plots of polarization versus [SH3 domain] began to increase at high [SH3 domain] (>50 micromolar), perhaps because of a second binding event. In these cases (indicated by an asterisk (*) in Table 5), data above 50 micromolar target protein was excluded during the curve fits.

Assay [2] concerns the target Lck SH3 domain-GST fusion protein (Homo sapiens, UniProt P06239). Briefly: Fluorescence polarization direct binding assay, Lck SH3. Particulars: 50 nM fluorescently labeled ligand, PBS pH 7.4; read-out: Kd, Lck SH3. Here is the method:
as §1

In the next assay the target is c-Src SH3^P133L (Gallus gallus, UniProt P00523, P133L). Briefly: Fluorescence polarization direct binding assay, c-Src SH3^P133L. Particulars: 50 nM fluorescently labeled ligand; lower limit estimated; read-out: Kd, c-Src P133L SH3. More on the design: species or system chicken. On the procedure:
(§2) Polarization was measured by excitation with vertically polarized light at 485 nm and the fluorescence emission detected at 530 nm in both the vertical and horizontal directions. An average of five measurements were recorded for each well. Samples were equilibrated at room temperature for 25 min before analysis, a time sufficient for the binding reactions to reach equilibrium. The polarization data were fit using Kaleidagraph v3.6 software to Eq. 5, which is derived from first principles without assumptions. […] In this equation, Pobs is the observed polarization value at any given concentration of target protein (GST•SH3 domain). Pmin is the polarization of peptide^Flu at 50 nM in the absence of target protein. Pmax is the maximum polarization of peptide^Flu at saturation with target protein. Kd is the equilibrium dissociation constant. […] Free fits are shown. Kd values were estimated as described.

In assay [3] the target is Hck SH3 domain-GST fusion protein (Homo sapiens, UniProt P08631). Put plainly: Fluorescence polarization direct binding assay, Hck SH3. Particulars: 50 nM fluorescently labeled ligand, PBS pH 7.4; read-out: Kd, Hck SH3. Here is the method:
as §2

Assay [4] deals with T1, c-Src SH3 domain-GST fusion protein (Gallus gallus, UniProt P00523). Put plainly: Fluorescence polarization direct binding assay, c-Src SH3. More on the design: species or system chicken. Particulars: 50 nM fluorescently labeled ligand, PBS pH 7.4; read-out: Kd, c-Src SH3. Here is the method: as §2
The target of assay [5] is Fyn SH3 domain-GST fusion protein (Homo sapiens, UniProt P06241). Put plainly: Fluorescence polarization direct binding assay, Fyn SH3. Particulars: 50 nM fluorescently labeled ligand, PBS pH 7.4; read-out: Kd, Fyn SH3. Here is the method:
as §1

The target in assay [6] is T1, c-Src SH3 domain-GST fusion protein. Particulars: literature value; read-out: Kd, c-Src SH3 (reported); cited from earlier work.
Assay [7] has as its target non-Src family SH3 domain (Ab1, Nck1, Grb2, Abp1). Briefly: Fluorescence polarization binding to non-Src family SH3 domains. Particulars: data not shown. On the procedure: Fluorescence polarization assays were performed with 50 nM fluorescently labeled miniature protein and the indicated SH3 domain-GST fusion protein in PBS (1 mM KH2PO4, 155 mM NaCl, 3 mM Na2HPO4 (pH 7.4)) supplemented with 1 mM DTT and using the Analyst™ AD 96·384 automated fluorescence plate reader (LjL Biosystems). Binding reactions (32 microliters) were analyzed within 384-well assay plates (Corning Inc., Plate #3654) using settings defined by Criterion Host software v.2.00.11 and z height 1 mm. Polarization was measured by excitation with vertically polarized light at 485 nm and the fluorescence emission detected at 530 nm in both the vertical and horizontal directions. An average of five measurements were recorded for each well. Samples were equilibrated at room temperature for 25 min before analysis, a time sufficient for the binding reactions to reach equilibrium. […]
In this equation, Pobs is the observed polarization value at any given concentration of target protein (GST•SH3 domain). […] The observed binding free energy, ΔG, was calculated from the relationship ΔG=−RT ln Kd^−1, where R is the universal gas constant (1.987×10^−3 kcal mol^−1 K^−1) and T is the temperature in Kelvin (298 K). Fluorescence polarization analysis of the binding of fluorescently labeled miniature proteins and Peptide 1 to c-Src SH3^P133L are shown in FIG. 11. […]

A further assay addresses T2, Hck kinase (Homo sapiens, UniProt P08631).
T2 construct: His6 (N); made in house; host or cells: HighFive insect cells, co-infected with Hck and Csk baculovirus
Put plainly: Hck kinase activation, NADH-coupled assay. It counts as biochemical. Particulars: Activator 50 micromolar. On the procedure:
Activation of Hck kinase was measured using a validated NADH-coupled assay as described. Briefly, purified Hck kinase (15 micromolar) was first pre-incubated with 500 micromolar ATP and 20 mM MgCl2 for about 30 min on ice to initiate autophosphorylation of Y416. The autophosphorylated product (0.55 micromolar final concentration) was then incubated in Hck Reaction Buffer (20 mM MgCl2, 0.1 mM DTT, 20 μg/mL BSA, 100 mM HEPES (pH 7.5)) for 10 min at room temperature with the indicated concentration of Nef or miniature protein. At this time the remaining assay components (1 mM PEP, 0.2 mM NADH, 6 U pyruvate kinase (Type II from rabbit muscle, Sigma), 6 U L-lactic dehydrogenase (Type II from rabbit muscle, Sigma), 600 micromolar substrate peptide, and 500 micromolar ATP) were added to initiate the reaction (total volume 200 microliters) and the absorbance at 340 nm was monitored every 10 sec for 10 min using a Beckman DU 730 UVN is Spectrophotomer. The activation constant Kact for each ligand was calculated from the initial rate as a function of ligand concentration as previously described, using Eq. 6. Fold activation was calculated by dividing the rate in the presence of ligand by the rate in the absence of ligand.
va=Vact[L]/(Kact±[L]) Equation 6.
In this equation va is velocity measured in the presence of ligand minus the velocity measured in its absence; Vact is the maximal activated velocity minus the velocity measured in the absence of ligand; [L] is the concentration of activator and Kact is concentration of activator at half-maximal activation.

Several values for one entry are separate records, joined by “and”; a condition that tells them apart may be missing. Equal entries are not always repeated. Where two headings read alike, the source gives them in different places. Residues, ends and D or L forms follow the SMILES beside them.

T2 sequence (P08631 whole entry): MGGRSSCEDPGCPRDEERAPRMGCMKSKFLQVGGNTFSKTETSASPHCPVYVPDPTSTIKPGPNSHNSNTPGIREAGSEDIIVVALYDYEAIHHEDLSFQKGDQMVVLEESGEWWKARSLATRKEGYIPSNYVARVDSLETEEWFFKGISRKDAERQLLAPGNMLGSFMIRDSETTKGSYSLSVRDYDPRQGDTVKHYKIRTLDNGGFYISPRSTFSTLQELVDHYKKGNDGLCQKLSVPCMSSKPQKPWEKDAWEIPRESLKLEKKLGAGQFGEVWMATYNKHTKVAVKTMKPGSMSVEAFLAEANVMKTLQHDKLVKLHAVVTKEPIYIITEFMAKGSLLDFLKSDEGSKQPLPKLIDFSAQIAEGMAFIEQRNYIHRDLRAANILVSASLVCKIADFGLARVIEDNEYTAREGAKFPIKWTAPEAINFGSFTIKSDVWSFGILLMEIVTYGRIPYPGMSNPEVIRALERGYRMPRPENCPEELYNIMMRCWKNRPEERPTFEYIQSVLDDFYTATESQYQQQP
Sequence of Lyn SH3 domain-GST fusion protein (P07948 62-122): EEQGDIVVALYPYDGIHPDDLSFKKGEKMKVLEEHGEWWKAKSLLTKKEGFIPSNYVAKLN
Sequence of Lck SH3 domain-GST fusion protein (P06239 62-128): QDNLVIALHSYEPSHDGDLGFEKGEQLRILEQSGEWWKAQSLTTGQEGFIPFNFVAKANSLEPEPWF
Sequence of Hck SH3 domain-GST fusion protein (P08631 77-137): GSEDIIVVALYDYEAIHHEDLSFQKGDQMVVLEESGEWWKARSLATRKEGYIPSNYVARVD
Sequence of Fyn SH3 domain-GST fusion protein (P06241 81-142): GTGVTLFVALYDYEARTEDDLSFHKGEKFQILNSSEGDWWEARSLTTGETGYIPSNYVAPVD

Take `CC(C)C[C@H](NC(=O)[C@H](CCCNC(=N)N)NC(=O)[C@@H]1CCCN1C(=O)[C@H](CCCNC(=N)N)NC(=O)[C@H](CC(N)=O)NC(=O)[C@H](CCCNC(=N)N)NC(=O)[C@@H]1CCCN1C(=O)[C@@H]1CCCN1C(=O)[C@H](CC(C)C)NC(=O)[C@@H]1CCCN1C(=O)[C@@H]1CCCN1C(=O)[C@H](C)N)C(N)=O` [Peptide 1] (H-APPLPPRNRPRL-NH2): the dissociation constant (Kd) in assay [1] was 870 to 2000 nM; in assay [2], above 20000 nM; at c-Src SH3^P133L it was above 20000 nM; in assay [3], 870 to 2000 nM; in [4], 1500 ± 100 nM; in assay [5], 870 to 2000 nM. The Kd in assay [6] was 1200 nM; in [7], above 20000 nM. The molecule further registered an Activity at Hck kinase of 33.9 ± 3.2 nmol/s. At Hck kinase (rate with ligand / rate without ligand), the Fold-Activation was 3 and 3 ± 1.
